The kinase profiling compilation of Christmann-Franck et al. (2016)

Assays:
Assay in all cases: KINOMEscan competition binding
Settings in all cases: compound 10.0 µM
PLK4 (human) = PLK4 (human) (UniProt O00444)
RIPK2 (human) = RIPK2 (human) (UniProt O43353)
PTK2 (human) = PTK2 (human) (UniProt Q05397)
EPHA1 (human) = EPHA1 (human) (UniProt P21709)
GSK3A (human) = GSK3A (human) (UniProt P49840)
AKT1 (human) = AKT1 (human) (UniProt P31749)
STK32B (human) = STK32B (human) (UniProt Q9NY57)
AAK1 (human) = AAK1 (human) (UniProt Q2M2I8)
AURKC (human) = AURKC (human) (UniProt Q9UQB9)
CLK2 (human) = CLK2 (human) (UniProt P49760)
CSNK1D (human) = CSNK1D (human) (UniProt P48730)
CSNK1G1 (human) = CSNK1G1 (human) (UniProt Q9HCP0)
BRSK2 (human) = BRSK2 (human) (UniProt Q8IWQ3)
[1] = test system: ABL1 (human), P00519 [T315I]
PIK3CA (human) = PIK3CA (human) (UniProt P42336)
CAMKK2 (human) = CAMKK2 (human) (UniProt Q96RR4)
BMPR1A (human) = BMPR1A (human) (UniProt P36894)
RPS6KA6 KD2 (human) = RPS6KA6 KD2 (human) (UniProt Q9UK32)
PKN1 (human) = PKN1 (human) (UniProt Q16512)
RAF1 (human) = RAF1 (human) (UniProt P04049)
[2] = test system: EGFR (human), P00533 [P753S; 747-752 del]
CDK17 (human) = CDK17 (human) (UniProt Q00537)
MARK2 (human) = MARK2 (human) (UniProt Q7KZI7)
PDPK1 (human) = PDPK1 (human) (UniProt O15530)
MINK1 (human) = MINK1 (human) (UniProt Q8N4C8)
TNK1 (human) = TNK1 (human) (UniProt Q13470)
TLK2 (human) = TLK2 (human) (UniProt Q86UE8)
PIM3 (human) = PIM3 (human) (UniProt Q86V86)
MAP3K7 (human) = MAP3K7 (human) (UniProt O43318)
STK16 (human) = STK16 (human) (UniProt O75716)
IGF1R (human) = IGF1R (human) (UniProt P08069)
LATS1 (human) = LATS1 (human) (UniProt O95835)
EPHA3 (human) = EPHA3 (human) (UniProt P29320)
DDR1 (human) = DDR1 (human) (UniProt Q08345)
[3] = target: TYK2 JH1 catalytic (human) (UniProt P29597)
[4] = test system: FLT3 (human), P36888 [D835Y]
ULK2 (human) = ULK2 (human) (UniProt Q8IYT8)
STK3 (human) = STK3 (human) (UniProt Q13188)
DYRK1B (human) = DYRK1B (human) (UniProt Q9Y463)
ACVR2B (human) = ACVR2B (human) (UniProt Q13705)
CAMK2A (human) = CAMK2A (human) (UniProt Q9UQM7)
TEK (human) = TEK (human) (UniProt Q02763)

ACVR2B (human), sequence (Q13705 whole entry, looked up): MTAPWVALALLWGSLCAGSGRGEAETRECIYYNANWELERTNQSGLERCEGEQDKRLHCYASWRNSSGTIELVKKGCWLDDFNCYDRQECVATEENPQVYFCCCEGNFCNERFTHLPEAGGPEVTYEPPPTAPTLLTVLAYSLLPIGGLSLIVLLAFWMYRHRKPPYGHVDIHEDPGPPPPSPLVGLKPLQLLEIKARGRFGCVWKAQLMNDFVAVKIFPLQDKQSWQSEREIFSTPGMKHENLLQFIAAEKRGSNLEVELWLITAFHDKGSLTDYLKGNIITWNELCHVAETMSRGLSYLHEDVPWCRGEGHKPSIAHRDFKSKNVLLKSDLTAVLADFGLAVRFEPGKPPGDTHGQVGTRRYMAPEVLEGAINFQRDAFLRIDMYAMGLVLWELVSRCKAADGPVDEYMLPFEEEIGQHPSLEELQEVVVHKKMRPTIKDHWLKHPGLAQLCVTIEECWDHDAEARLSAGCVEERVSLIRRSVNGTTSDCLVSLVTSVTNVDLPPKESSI
TLK2 (human), sequence (Q86UE8 whole entry, looked up): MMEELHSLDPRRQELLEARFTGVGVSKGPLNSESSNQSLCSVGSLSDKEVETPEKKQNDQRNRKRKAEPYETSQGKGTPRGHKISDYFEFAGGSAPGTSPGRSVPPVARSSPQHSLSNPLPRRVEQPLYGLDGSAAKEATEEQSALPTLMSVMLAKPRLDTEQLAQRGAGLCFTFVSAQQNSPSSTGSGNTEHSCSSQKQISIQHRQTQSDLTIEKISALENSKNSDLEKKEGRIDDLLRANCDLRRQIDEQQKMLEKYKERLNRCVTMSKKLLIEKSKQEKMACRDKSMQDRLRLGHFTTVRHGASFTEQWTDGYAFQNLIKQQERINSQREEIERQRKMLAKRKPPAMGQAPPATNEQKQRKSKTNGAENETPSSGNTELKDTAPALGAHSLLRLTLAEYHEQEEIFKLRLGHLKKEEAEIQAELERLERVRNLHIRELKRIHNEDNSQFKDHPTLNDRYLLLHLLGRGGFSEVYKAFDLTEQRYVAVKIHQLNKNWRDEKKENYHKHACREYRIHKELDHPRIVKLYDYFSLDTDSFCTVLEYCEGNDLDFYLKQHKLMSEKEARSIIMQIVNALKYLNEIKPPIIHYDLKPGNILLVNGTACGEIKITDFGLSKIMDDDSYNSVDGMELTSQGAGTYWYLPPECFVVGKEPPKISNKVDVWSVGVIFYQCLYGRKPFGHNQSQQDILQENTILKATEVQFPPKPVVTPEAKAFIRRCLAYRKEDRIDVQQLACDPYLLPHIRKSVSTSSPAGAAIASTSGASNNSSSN
CSNK1D (human), sequence (P48730 whole entry, looked up): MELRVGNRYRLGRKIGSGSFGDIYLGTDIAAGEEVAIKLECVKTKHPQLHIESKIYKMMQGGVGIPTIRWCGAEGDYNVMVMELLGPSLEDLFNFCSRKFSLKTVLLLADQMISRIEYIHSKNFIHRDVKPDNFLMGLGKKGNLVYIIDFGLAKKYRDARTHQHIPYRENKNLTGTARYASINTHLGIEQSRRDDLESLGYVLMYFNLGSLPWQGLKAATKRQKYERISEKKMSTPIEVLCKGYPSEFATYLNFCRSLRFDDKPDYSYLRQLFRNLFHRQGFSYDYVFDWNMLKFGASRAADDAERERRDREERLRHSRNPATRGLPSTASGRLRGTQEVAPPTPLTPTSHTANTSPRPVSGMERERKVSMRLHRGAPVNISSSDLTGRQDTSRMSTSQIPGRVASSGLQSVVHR
STK32B (human), sequence (Q9NY57 whole entry, looked up): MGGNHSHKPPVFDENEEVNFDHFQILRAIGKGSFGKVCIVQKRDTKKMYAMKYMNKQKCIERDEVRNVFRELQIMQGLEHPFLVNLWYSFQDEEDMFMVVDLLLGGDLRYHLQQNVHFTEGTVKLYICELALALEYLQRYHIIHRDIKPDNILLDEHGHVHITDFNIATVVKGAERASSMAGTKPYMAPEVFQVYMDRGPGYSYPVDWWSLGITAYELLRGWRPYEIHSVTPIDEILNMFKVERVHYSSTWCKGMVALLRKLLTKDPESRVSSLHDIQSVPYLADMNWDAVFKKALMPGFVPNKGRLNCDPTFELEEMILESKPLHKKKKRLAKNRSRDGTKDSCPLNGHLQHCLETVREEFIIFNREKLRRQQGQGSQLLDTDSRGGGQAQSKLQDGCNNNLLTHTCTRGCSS
TYK2 JH1 catalytic (human), sequence (P29597 whole entry, looked up): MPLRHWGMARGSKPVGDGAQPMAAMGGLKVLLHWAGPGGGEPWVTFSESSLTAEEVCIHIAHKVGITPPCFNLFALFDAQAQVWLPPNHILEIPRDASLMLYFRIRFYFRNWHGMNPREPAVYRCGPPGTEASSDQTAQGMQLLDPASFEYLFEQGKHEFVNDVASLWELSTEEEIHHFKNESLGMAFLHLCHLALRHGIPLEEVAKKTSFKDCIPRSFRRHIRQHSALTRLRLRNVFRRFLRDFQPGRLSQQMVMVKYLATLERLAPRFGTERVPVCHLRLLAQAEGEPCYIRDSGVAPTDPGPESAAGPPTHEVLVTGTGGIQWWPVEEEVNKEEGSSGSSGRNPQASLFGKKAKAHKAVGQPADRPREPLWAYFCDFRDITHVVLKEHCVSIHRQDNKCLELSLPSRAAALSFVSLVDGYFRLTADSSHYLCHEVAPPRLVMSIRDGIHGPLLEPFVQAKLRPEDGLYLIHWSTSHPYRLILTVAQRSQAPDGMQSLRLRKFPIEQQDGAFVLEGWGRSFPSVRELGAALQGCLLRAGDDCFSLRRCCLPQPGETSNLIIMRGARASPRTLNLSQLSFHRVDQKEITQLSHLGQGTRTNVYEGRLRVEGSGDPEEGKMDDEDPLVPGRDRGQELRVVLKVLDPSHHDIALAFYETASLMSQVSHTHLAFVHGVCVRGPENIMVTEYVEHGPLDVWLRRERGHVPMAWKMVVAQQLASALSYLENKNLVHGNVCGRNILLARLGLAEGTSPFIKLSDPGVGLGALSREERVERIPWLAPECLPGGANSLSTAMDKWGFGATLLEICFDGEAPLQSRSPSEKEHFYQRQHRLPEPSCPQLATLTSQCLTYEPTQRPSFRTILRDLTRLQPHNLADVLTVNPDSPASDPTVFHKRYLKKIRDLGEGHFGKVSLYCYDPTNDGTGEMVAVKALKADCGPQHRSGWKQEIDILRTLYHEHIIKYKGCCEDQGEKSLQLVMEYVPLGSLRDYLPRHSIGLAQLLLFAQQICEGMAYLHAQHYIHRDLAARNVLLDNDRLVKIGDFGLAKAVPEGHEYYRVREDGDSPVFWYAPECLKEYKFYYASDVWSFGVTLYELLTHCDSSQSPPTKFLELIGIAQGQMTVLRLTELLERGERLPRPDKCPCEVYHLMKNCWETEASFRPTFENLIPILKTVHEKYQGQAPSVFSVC
AAK1 (human), sequence (Q2M2I8 whole entry, looked up): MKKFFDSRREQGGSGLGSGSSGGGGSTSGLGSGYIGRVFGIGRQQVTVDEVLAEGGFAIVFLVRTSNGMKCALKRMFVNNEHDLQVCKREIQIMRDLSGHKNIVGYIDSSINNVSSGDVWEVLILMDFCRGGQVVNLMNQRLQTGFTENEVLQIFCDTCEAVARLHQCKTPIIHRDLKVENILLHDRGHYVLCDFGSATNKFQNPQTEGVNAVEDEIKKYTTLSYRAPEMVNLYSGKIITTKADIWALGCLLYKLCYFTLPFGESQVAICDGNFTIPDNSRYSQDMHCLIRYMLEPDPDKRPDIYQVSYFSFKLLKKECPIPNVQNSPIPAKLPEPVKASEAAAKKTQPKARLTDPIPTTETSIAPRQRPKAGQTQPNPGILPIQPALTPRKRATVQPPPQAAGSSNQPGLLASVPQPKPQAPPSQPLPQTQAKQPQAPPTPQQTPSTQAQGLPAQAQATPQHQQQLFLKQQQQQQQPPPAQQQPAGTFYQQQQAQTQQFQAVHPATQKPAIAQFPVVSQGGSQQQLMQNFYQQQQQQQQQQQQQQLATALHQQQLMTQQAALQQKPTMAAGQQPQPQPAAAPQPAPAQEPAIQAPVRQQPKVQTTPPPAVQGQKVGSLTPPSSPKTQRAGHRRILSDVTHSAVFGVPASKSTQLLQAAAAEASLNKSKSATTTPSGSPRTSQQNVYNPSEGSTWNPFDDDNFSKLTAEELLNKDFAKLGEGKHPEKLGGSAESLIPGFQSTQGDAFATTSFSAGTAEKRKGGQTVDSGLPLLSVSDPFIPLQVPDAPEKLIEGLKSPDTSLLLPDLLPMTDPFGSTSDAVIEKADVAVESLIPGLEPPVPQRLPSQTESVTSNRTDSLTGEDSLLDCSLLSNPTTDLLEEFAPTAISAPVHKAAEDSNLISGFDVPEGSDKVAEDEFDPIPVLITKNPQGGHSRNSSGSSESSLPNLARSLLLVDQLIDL
CAMK2A (human), sequence (Q9UQM7 whole entry, looked up): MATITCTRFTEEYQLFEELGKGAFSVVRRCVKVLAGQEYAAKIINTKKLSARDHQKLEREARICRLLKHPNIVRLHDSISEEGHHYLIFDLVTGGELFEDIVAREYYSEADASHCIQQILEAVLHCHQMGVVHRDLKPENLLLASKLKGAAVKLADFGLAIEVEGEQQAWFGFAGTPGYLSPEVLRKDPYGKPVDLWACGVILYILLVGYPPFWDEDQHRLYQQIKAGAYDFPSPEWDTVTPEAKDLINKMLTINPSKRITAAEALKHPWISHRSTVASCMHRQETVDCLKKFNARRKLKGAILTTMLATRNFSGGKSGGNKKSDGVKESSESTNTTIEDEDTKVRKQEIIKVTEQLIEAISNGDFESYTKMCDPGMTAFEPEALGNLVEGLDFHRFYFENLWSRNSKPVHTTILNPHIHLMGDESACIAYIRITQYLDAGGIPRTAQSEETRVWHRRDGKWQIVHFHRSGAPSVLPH
STK16 (human), sequence (O75716 whole entry, looked up): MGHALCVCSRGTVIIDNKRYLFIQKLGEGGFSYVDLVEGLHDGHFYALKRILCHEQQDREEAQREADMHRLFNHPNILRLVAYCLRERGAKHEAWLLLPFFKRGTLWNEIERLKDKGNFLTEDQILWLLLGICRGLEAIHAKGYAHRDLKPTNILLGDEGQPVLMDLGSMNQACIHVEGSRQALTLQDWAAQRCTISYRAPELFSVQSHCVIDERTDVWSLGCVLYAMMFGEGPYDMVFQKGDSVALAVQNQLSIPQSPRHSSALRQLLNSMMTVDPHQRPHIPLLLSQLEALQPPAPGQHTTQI

Q: What does the source list for `COc1cc(N2CCN(C)CC2)ccc1Nc1ncc2c(n1)N(C)c1sccc1C(=O)N2C`?
A: kinase still bound, per cent of control (PLK4 (human)): 9.9%; kinase still bound, per cent of control (RIPK2 (human)): 92%; kinase still bound, per cent of control (PTK2 (human)): 13%; kinase still bound, per cent of control (EPHA1 (human)): 87%; kinase still bound, per cent of control (GSK3A (human)): 100%; kinase still bound, per cent of control (AKT1 (human)): 100%; kinase still bound, per cent of control (STK32B (human)): 100%; kinase still bound, per cent of control (AAK1 (human)): 75%; kinase still bound, per cent of control (AURKC (human)): 82%; kinase still bound, per cent of control (CLK2 (human)): 78%; kinase still bound, per cent of control (CSNK1D (human)): 81%; kinase still bound, per cent of control (CSNK1G1 (human)): 89%; kinase still bound, per cent of control (BRSK2 (human)): 100%; kinase still bound, per cent of control [1]: 66%; kinase still bound, per cent of control (PIK3CA (human)): 97%; kinase still bound, per cent of control (CAMKK2 (human)): 34%; kinase still bound, per cent of control (BMPR1A (human)): 100%; kinase still bound, per cent of control (RPS6KA6 KD2 (human)): 6%; kinase still bound, per cent of control (PKN1 (human)): 91%; kinase still bound, per cent of control (RAF1 (human)): 94%; kinase still bound, per cent of control [2]: 82%; kinase still bound, per cent of control (CDK17 (human)): 85%; kinase still bound, per cent of control (MARK2 (human)): 100%; kinase still bound, per cent of control (PDPK1 (human)): 93%; kinase still bound, per cent of control (MINK1 (human)): 46%; kinase still bound, per cent of control (TNK1 (human)): 7%; kinase still bound, per cent of control (TLK2 (human)): 93%; kinase still bound, per cent of control (PIM3 (human)): 62%; kinase still bound, per cent of control (MAP3K7 (human)): 81%; kinase still bound, per cent of control (STK16 (human)): 81%; kinase still bound, per cent of control (IGF1R (human)): 100%; kinase still bound, per cent of control (LATS1 (human)): 79%; kinase still bound, per cent of control (EPHA3 (human)): 71%; kinase still bound, per cent of control (DDR1 (human)): 100%; kinase still bound, per cent of control [3]: 62%; kinase still bound, per cent of control [4]: 74%; kinase still bound, per cent of control (ULK2 (human)): 1.2%; kinase still bound, per cent of control (STK3 (human)): 69%; kinase still bound, per cent of control (DYRK1B (human)): 63%; kinase still bound, per cent of control (ACVR2B (human)): 100%; kinase still bound, per cent of control (CAMK2A (human)): 44%; kinase still bound, per cent of control (TEK (human)): 88%

Q: For `CN1C(=O)c2ccccc2N(C)c2nc(Nc3ccc(N4CCC(O)CC4)cc3)ncc21`, which kinase still bound, per cent of control (PLK4 (human)) is on record?
A: Its kinase still bound, per cent of control is 1.8%.

Q: What about the kinase still bound, per cent of control (RIPK2 (human)) of the same molecule?
A: Its kinase still bound, per cent of control is 66%.

Q: What about the kinase still bound, per cent of control (PTK2 (human)) of the same molecule?
A: Its kinase still bound, per cent of control is 75%.

Q: And the kinase still bound, per cent of control (EPHA1 (human))?
A: Its kinase still bound, per cent of control is 100%.

Q: What about the kinase still bound, per cent of control (GSK3A (human)) of the same molecule?
A: The kinase still bound, per cent of control was 100%.

Q: And the kinase still bound, per cent of control (AKT1 (human))?
A: The kinase still bound, per cent of control was 100%.

Q: And the kinase still bound, per cent of control (STK32B (human))?
A: The kinase still bound, per cent of control was 100%.

Q: What about the kinase still bound, per cent of control (AAK1 (human)) of the same molecule?
A: The kinase still bound, per cent of control was 62%.

Q: What about the kinase still bound, per cent of control (AURKC (human)) of the same molecule?
A: The kinase still bound, per cent of control was 22%.

Q: And the kinase still bound, per cent of control (CLK2 (human))?
A: Its kinase still bound, per cent of control is 100%.

Q: What about the kinase still bound, per cent of control (CSNK1D (human)) of the same molecule?
A: The kinase still bound, per cent of control was 77%.

Q: And the kinase still bound, per cent of control (CSNK1G1 (human))?
A: The kinase still bound, per cent of control was 73%.

Q: What about the kinase still bound, per cent of control (BRSK2 (human)) of the same molecule?
A: Its kinase still bound, per cent of control is 48%.

Q: And the kinase still bound, per cent of control [1]?
A: Its kinase still bound, per cent of control is 3.6%.

Q: What about the kinase still bound, per cent of control (PIK3CA (human)) of the same molecule?
A: The kinase still bound, per cent of control was 98%.

Q: What about the kinase still bound, per cent of control (CAMKK2 (human)) of the same molecule?
A: The kinase still bound, per cent of control was 55%.

Q: And the kinase still bound, per cent of control (BMPR1A (human))?
A: The kinase still bound, per cent of control was 61%.

Q: What about the kinase still bound, per cent of control (RPS6KA6 KD2 (human)) of the same molecule?
A: Its kinase still bound, per cent of control is 63%.

Q: And the kinase still bound, per cent of control (PKN1 (human))?
A: The kinase still bound, per cent of control was 100%.

Q: What about the kinase still bound, per cent of control (RAF1 (human)) of the same molecule?
A: Its kinase still bound, per cent of control is 100%.

Q: What about the kinase still bound, per cent of control [2] of the same molecule?
A: The kinase still bound, per cent of control was 100%.

Q: What about the kinase still bound, per cent of control (CDK17 (human)) of the same molecule?
A: The kinase still bound, per cent of control was 90%.

Q: What about the kinase still bound, per cent of control (MARK2 (human)) of the same molecule?
A: Its kinase still bound, per cent of control is 51%.

Q: What about the kinase still bound, per cent of control (PDPK1 (human)) of the same molecule?
A: The kinase still bound, per cent of control was 97%.

Q: What about the kinase still bound, per cent of control (MINK1 (human)) of the same molecule?
A: Its kinase still bound, per cent of control is 100%.

Q: And the kinase still bound, per cent of control (TNK1 (human))?
A: Its kinase still bound, per cent of control is 0.95%.

Q: What about the kinase still bound, per cent of control (TLK2 (human)) of the same molecule?
A: The kinase still bound, per cent of control was 100%.

Q: And the kinase still bound, per cent of control (PIM3 (human))?
A: Its kinase still bound, per cent of control is 100%.

Q: And the kinase still bound, per cent of control (MAP3K7 (human))?
A: The kinase still bound, per cent of control was 58%.

Q: What about the kinase still bound, per cent of control (STK16 (human)) of the same molecule?
A: The kinase still bound, per cent of control was 59%.

Q: And the kinase still bound, per cent of control (IGF1R (human))?
A: The kinase still bound, per cent of control was 100%.

Q: And the kinase still bound, per cent of control (LATS1 (human))?
A: Its kinase still bound, per cent of control is 92%.

Q: What about the kinase still bound, per cent of control (EPHA3 (human)) of the same molecule?
A: Its kinase still bound, per cent of control is 83%.

Q: And the kinase still bound, per cent of control (DDR1 (human))?
A: The kinase still bound, per cent of control was 68%.

Q: And the kinase still bound, per cent of control [3]?
A: Its kinase still bound, per cent of control is 1.9%.

Q: And the kinase still bound, per cent of control [4]?
A: The kinase still bound, per cent of control was 24%.

Q: What about the kinase still bound, per cent of control (ULK2 (human)) of the same molecule?
A: Its kinase still bound, per cent of control is 6.2%.

Q: And the kinase still bound, per cent of control (STK3 (human))?
A: Its kinase still bound, per cent of control is 27%.

Q: What about the kinase still bound, per cent of control (DYRK1B (human)) of the same molecule?
A: Its kinase still bound, per cent of control is 100%.

Q: And the kinase still bound, per cent of control (ACVR2B (human))?
A: The kinase still bound, per cent of control was 45%.

Q: And the kinase still bound, per cent of control (CAMK2A (human))?
A: Its kinase still bound, per cent of control is 86%.

Q: And the kinase still bound, per cent of control (TEK (human))?
A: Its kinase still bound, per cent of control is 72%.
